Data as given in patent US20220339143A1, “TAK-925 FOR USE IN TREATING NARCOLEPSY” (Takeda Pharmaceutical Company Limited, priority 2019, published 2022).

Columns and labels:
[1] = CSF PK in healthy subjects (Cohort 4); type: in vivo; details: human; for concentration at 6 h: cerebrospinal fluid, intravenous, 112 mg, Cohort 4
Experimental: (§1) Pharmacokinetics: Concentrations of Compound A in plasma, and CSF, and pharmacokinetics parameters.
(§2) Following a single 9-hour IV infusion of 112 mg to healthy adult subjects in Cohort 4, Compound A plasma concentration-time profile was consistent with that observed in Cohort 1. At 6 hours after the start of infusion, mean ratio CSF/plasma concentration of Compound A was estimated to be about 2.8%.

[2] = tested on: patients with NT1; assay: PVT, multiple dose (Cohorts B1, B2); type: in vivo, human; details: 9 hours postdose
[3] = Plasma concentrations in healthy subjects (Cohort 4); type: in vivo; details: human, intravenous, 112 mg
Experimental: as §1, §2

Compound `COC(=O)N1CCC[C@H](NS(C)(=O)=O)[C@@H]1CO[C@H]1CC[C@@H](c2ccccc2)CC1` [Compound A, methyl (2R,3S)-3-((methylsulfonyl)amino)-2-(((cis-4-phenylcyclohexyl)oxy)methyl)piperidine-1-carboxylate] has a Kp at 6 h ([1]; CSF, 112 mg single 9-hour IV infusion, 6 hours after the start of infusion, healthy adults Cohort 4, read-out: mean ratio CSF/plasma concentration) of roughly 0.028, a concentration at 6 h ([1]; Mean) of 6.73 ng/mL and a concentration at 6 h ([1]; Median) of 6.63 ng/mL. For the same compound, the “PVT, mean change from baseline in the number of lapses” value (shortened to “PVT, mean change … of lapses”) ([2]; 11 mg, Day 1 (placebo 10.5)) was −9.3, the “PVT, mean change from baseline in mean duration of the reciprocal 10% slowest reaction time (1/RT)” value ([2]; 11 mg, Day 1 (placebo −0.49)) was 0.88 and the “PVT, mean change … of lapses” value ([2]; 11 mg, Day 7 (placebo 11.8)) was −14.8. For the same compound, the “PVT, mean change from baseline in mean duration of the reciprocal 10% slowest reaction time (1/RT)” value ([2]; 11 mg, Day 7 (placebo −0.73)) was 1.27, the “PVT, mean change … of lapses” value ([2]; 44 mg, Day 1 (placebo 10.5)) was −12.8 and the “PVT, mean change from baseline in mean duration of the reciprocal 10% slowest reaction time (1/RT)” value ([2]; 44 mg, Day 1 (placebo −0.49)) was 0.51. The “PVT, mean change … of lapses” value ([2]; 44 mg, Day 7 (placebo 11.8)) was −12.8, the “PVT, mean change from baseline in mean duration of the reciprocal 10% slowest reaction time (1/RT)” value ([2]; 44 mg, Day 7 (placebo −0.73)) was −0.70 and the concentration at 0.5 h ([3]; Mean) was 119 ng/mL. The concentration at 0.5 h ([3]; Median) was 116 ng/mL, the concentration at 1 h ([3]; Mean) was 162 ng/mL and the concentration at 1 h ([3]; Median) was 156 ng/mL. For the same compound, the concentration at 1.5 h ([3]; Mean) was 193 ng/mL, the concentration at 1.5 h ([3]; Median) was 194 ng/mL and the concentration at 2 h ([3]; Mean) was 186 ng/mL. For the same compound, the concentration at 2 h ([3]; Median) was 183 ng/mL, the concentration at 3 h ([3]; Mean) was 216 ng/mL and the concentration at 3 h ([3]; Median) was 218 ng/mL. For the same compound, the concentration at 4 h ([3]; Mean) was 234 ng/mL, the concentration at 4 h ([3]; Median) was 224 ng/mL and the concentration at 6 h ([3]; Mean) was 234 ng/mL. It also gave a concentration at 6 h ([3]; Median) of 227 ng/mL, a concentration at 8 h ([3]; Mean) of 177 ng/mL and a concentration at 8 h ([3]; Median) of 168 ng/mL. For the same compound, the concentration at 9 h ([3]; Mean) was 184 ng/mL and the concentration at 9 h ([3]; Median) was 182 ng/mL.
